One may read the solubility as the concentration that dissolves in the medium under given conditions. The term Log P denotes a log measure of how a compound divides between an organic and an aqueous phase.

Series [1] is described as follows: Solubility studies (excess powder, 24 h, 25 °C, HPLC). Type of series: physicochemical. The conditions noted are these: for solubility at 24 h: 25 °C; for Solubility classification: based on solubility test at pH 1.2 and pH 6.8, crystalline compounds. The source says:
HPLC was used to measure the concentrations of piperine and curcumin in samples taken during permeability, dissolution, and solubility investigations. A Shimadzu LC-2050C (Shimadzu Corp., Kyoto, Japan) was equipped with a diode array detector (DAD). A Dr. Maisch ReproSil-Pur Basic-C18 100 Å column with a 5 μm particle size and a 100 × 4.60 mm size (Dr. Maisch, Ammerbuch-Entringen, Germany) was used as a stationary phase. HPLC-grade methanol/0.1% acetic acid (85:15 v/v) was used as the mobile phase. The mobile phase was vacuum filtered through a 0.45 μm nylon filter (Phenomenex, Torrance, CA, USA). The analysis parameters were as follows: a flow rate of 0.3 mL/min, a wavelength of 420 nm for curcumin and 340 nm for piperine, and a column temperature of 30 °C. The injection volume differed depending on the assay. […] The duration of the run was 9 min. […] Chromatograms (Figure S1) and method validation parameters (Table S1) were added to the Supplementary Materials. The following steps were used to prepare phosphate buffer at pH 6.8: In a 1000 mL volumetric flask, 250 mL of 0.2 N potassium dihydrogen phosphate solution was added, followed by 112 mL of a 0.2 N sodium hydroxide solution. Purified water was added to make the volume up to 1000 mL. A hydrochloric acid solution with a pH of 1.2 was prepared according to the manufacturer's instructions ([…], Poznań, Poland) from the analytically weighed amount. A 10 mL glass tube was filled with an excess amount of powder (corresponding to 4 mg of each active substance). […] The obtained solutions were filtered, diluted 1:20 v/v with water, and filtered again through a 0.2 μm PTFE membrane filter (Sigma-Aldrich, St. Louis, MO, USA) and analyzed using the HPLC method described above.

A short description of series [2]: PAMPA permeability assay, blood-brain barrier (BBB) model. Type of series: in vitro ADME. The conditions noted are these: donor pH ≈7.4, 4 h, 37 °C. The source says:
(§1) HPLC was used to measure the concentrations of piperine and curcumin in samples taken during permeability, dissolution, and solubility investigations. A Shimadzu LC-2050C (Shimadzu Corp., Kyoto, Japan) was equipped with a diode array detector (DAD). A Dr. Maisch ReproSil-Pur Basic-C18 100 Å column with a 5 µm particle size and a 100 × 4.60 mm size (Dr. Maisch, Ammerbuch-Entringen, Germany) was used as a stationary phase. HPLC-grade methanol/0.1% acetic acid (85:15 v/v) was used as the mobile phase. The mobile phase was vacuum filtered through a 0.45 µm nylon filter (Phenomenex, Torrance, CA, USA). The analysis parameters were as follows: a flow rate of 0.3 mL/min, a wavelength of 420 nm for curcumin and 340 nm for piperine, and a column temperature of 30 °C. The injection volume differed depending on the assay. […] The duration of the run was 9 min. […] Chromatograms (Figure S1) and method validation parameters (Table S1) were added to the Supplementary Materials. The Parallel Artificial Membrane Permeability Assay (PAMPA) models were used to study the permeability of the blood-brain barrier (BBB) and the gastrointestinal tract (GIT) in vitro. Two 96-well microfilter plates formed the sandwich. There were two chambers in the PAMPA system: the acceptor chamber at the top and the donor chamber at the bottom. […]

Series [3] in a line: Differential scanning calorimetry (glass transition, glass-forming ability). The following applies: heating–cooling–heating, different cooling rates; no crystallization during cooling and following heating. The class given is physicochemical. The procedure:
A DSC 214 Polyma differential scanning calorimeter (Netzsch, Selb, Germany) was used for the thermal analysis. Samples of about 5–10 mg were put into crimped aluminum pans with a small hole in the lid. To remove water from the samples, they were heated to 80 °C and kept for 8 min at this temperature, cooled to 25 °C, and then heated again to 235 °C. Raw compounds were heated to 235 °C, cooled to 25 °C, and then heated once again to 235 °C to determine their glass transition temperature (Tg). […] The Tg was taken as the midpoint between onset and endpoint temperatures. Various heating–cooling–heating cycles were carried out to evaluate the glass-forming abilities.
A general note: DSC measures the heat that a sample takes up or gives off during a temperature scan.

The nature of series [4]: PAMPA permeability assay, gastrointestinal tract (GIT) model. Type of series: in vitro ADME. The following applies: donor pH ≈6.8, 4 h, 37 °C.
Description: as §1

The conditions of series [5]: cited from earlier work.

Molecules are shown by their SMILES. Values after ≈ are worked out from the molar mass of the structure shown. Read-outs that look alike come from different tables or passages of the source. Marks after values point to notes of the source that are not given here.

In the case of `COc1cc(/C=C/C(=O)CC(=O)/C=C/c2ccc(O)c(OC)c2)ccc1O` [Curcumin], the solubility at 24 h in series [1] (HCl solution, pH 1.2 HCl, read-out: Solubility, Curcumin Conc.) was 0.11 ± 0.01 µg/mL (≈ 0.299 µM). Besides, the Solubility classification entry in series [1] is “practically insoluble”. Besides, the “Permeability, Curcumin Conc. in the acceptor solution” value in series [2] is on record as 0.00016 ± 0.000057 ^f mg/mL; in series [4] it was 0.00061 ± 0.000038 ^g mg/mL. For the same molecule, the Glass-forming ability entry in series [3] is recorded as “good glass-forming ability”.
As for `O=C(/C=C/C=C/c1ccc2c(c1)OCO2)N1CCCCC1` [Piperine], in series [5], the log partition coefficient (Log P) was 2.78. The solubility at 24 h in series [1] (HCl solution, simulated gastric fluid, thermodynamic from solid, pH 1.2 HCl, read-out: Solubility, Piperine Conc.) was 9 ± 0.6 µg/mL (≈ 31.5 µM); in series [1] (aqueous buffer, thermodynamic from solid, pH 6.8 phosphate buffer, read-out: Solubility, Piperine Conc.), 8 ± 0.4 µg/mL (≈ 28 µM). For the same molecule, in series [1], the Solubility classification entry is listed as “practically insoluble”. Moreover, the “Permeability, Piperine Conc. in the acceptor solution” value in series [2] is given as 0.0051 ± 0.0003 ^f mg/mL; in series [4], 0.0044 ± 0.0008 ^g mg/mL. The Glass-forming ability entry in series [3] was “good glass-forming ability”.

(Values after publication PMC11359794, “Amorphous Polymer–Phospholipid Solid Dispersions for the Co-Delivery of Curcumin and Piperine Prepared via Hot-Melt Extrusion” (Pharmaceutics, 2024).)
